Experimental data reported in patent US9452986B2, “6-heteroaryloxy- or 6-aryloxy-quinoline-2-carboxamides and method of use” (AbbVie Inc., priority 2014, dated 2016).
Read-outs that look alike come from different tables or passages of the source.

Target: recombinant human Nav1.7 (Homo sapiens (Human), UniProt Q15858)
Assay: FRET-based membrane potential assay, recombinant human sodium channel Nav1.7
Type: cell-based
In short: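 Channel activation used veratridine at its EC80, set by a dilution curve each experiment, together with Leiurus scorpion venom, added 3 min after compound. Membrane-potential ratio signals from FLIPR Tetra in HEPES-buffered HBSS were fitted to a four-parameter Hill equation for percent inhibition and IC50.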

[1] = HEK293 cells stably expressing recombinant human Nav1.7, veratridine + scorpion venom depolarization, read-out: FRET-Membrane Potential Nav1.7 IC50
[2] = read-out: FRET-Membrane Potential Nav1.7 IC50

recombinant human Nav1.7, sequence (Q15858 whole entry): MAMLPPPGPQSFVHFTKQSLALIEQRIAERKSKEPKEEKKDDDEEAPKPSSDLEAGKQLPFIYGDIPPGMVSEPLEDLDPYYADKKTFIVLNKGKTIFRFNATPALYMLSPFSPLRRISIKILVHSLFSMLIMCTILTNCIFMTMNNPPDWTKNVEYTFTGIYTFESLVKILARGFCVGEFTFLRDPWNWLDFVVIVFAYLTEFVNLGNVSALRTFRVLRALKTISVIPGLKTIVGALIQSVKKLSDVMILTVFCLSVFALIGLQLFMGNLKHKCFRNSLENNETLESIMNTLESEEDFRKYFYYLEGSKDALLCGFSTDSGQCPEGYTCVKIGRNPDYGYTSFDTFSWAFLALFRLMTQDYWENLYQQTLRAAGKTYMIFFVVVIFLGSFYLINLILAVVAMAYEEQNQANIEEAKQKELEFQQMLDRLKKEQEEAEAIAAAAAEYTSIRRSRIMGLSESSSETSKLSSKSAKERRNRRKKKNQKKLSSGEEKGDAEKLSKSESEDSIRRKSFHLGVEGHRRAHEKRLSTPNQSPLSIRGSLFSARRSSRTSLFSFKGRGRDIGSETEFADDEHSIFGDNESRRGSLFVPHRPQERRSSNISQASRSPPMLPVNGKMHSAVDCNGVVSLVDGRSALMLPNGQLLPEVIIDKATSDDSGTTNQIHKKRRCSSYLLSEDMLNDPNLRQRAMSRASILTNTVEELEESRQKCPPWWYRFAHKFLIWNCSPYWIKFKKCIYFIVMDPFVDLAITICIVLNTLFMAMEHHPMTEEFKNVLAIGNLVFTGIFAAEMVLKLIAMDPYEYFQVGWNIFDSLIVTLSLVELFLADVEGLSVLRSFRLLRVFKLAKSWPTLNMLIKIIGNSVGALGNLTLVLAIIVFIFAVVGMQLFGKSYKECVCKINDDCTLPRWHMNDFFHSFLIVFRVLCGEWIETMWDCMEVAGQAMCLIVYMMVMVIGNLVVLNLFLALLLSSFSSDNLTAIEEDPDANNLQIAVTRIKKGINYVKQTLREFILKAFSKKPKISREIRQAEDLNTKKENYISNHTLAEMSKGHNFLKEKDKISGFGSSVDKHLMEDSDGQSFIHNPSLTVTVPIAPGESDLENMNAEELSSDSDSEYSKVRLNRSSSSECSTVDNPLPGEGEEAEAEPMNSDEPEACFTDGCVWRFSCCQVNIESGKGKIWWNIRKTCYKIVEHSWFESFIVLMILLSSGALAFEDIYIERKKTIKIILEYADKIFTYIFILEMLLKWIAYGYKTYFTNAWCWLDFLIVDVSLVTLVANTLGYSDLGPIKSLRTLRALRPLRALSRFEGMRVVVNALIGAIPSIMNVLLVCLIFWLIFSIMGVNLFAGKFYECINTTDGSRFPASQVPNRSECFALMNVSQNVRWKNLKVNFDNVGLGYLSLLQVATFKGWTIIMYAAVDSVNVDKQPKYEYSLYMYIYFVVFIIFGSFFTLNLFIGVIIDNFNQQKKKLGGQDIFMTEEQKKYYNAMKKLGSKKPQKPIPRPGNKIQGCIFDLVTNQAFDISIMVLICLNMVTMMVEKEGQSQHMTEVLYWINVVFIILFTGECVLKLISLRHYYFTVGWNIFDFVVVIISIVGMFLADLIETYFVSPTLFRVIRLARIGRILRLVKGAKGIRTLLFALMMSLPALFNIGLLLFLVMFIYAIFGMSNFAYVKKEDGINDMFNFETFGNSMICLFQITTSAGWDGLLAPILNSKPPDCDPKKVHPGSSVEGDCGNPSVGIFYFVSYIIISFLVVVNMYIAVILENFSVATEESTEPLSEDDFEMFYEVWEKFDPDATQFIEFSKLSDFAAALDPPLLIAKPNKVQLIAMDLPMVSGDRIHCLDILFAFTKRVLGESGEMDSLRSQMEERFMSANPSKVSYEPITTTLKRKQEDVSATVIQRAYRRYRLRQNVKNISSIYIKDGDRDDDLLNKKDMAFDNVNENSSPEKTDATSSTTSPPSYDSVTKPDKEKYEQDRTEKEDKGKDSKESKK

Structure (SMILES)	IC50 [1] [µM]	other results
O=C(NC1CC(F)C1)c1ccc2cc(Oc3ccc(C(F)(F)F)cn3)ccc2n1 (stereo not shown) [Example 604, N-(3-fluorocyclobutyl)-6-{[5-(trifluoromethyl)pyridin-2-yl]oxy}quinoline-2-carboxamide]	3.01	–
O=C(c1ccc2cc(Oc3ccc(C(F)(F)F)cn3)ccc2n1)N1CCC(N2CCC2)C1 (stereo not shown) [Example 314, [3-(azetidin-1-yl)pyrrolidin-1-yl](6-{[5-(trifluoromethyl)pyridin-2-yl]oxy}quinolin-2-yl)methanone]	–	IC50 [2]: 0.218 µM
O=C(NCC1(O)CCOCC1)c1ccc2cc(Oc3ccc(C(F)(F)F)cn3)ccc2n1 [Example 362, N-[(4-hydroxytetrahydro-2H-pyran-4-yl)methyl]-6-{[5-(trifluoromethyl)pyridin-2-yl]oxy}quinoline-2-carboxamide]	1	–
O=C(c1ccc2cc(Oc3ccc(C(F)F)cn3)ccc2n1)N1CCN[C@@H](CO)C1 [Example 440, (6-{[5-(difluoromethyl)pyridin-2-yl]oxy}quinolin-2-yl) [(3R)-3-(hydroxymethyl)piperazin-1-yl]methanone]	12.6	–
O=C(c1ccc2cc(Oc3ccc(C(F)(F)F)cn3)ccc2n1)N1CCC2(CC1)CC(O)C2 [Example 354, (2-hydroxy-7-azaspiro[3.5]non-7-yl)(6-{[5-(trifluoromethyl)pyridin-2-yl]oxy}quinolin-2-yl)methanone]	12.4	–
N#Cc1ccc(Oc2ccc3nc(C(=O)NCc4ccccn4)ccc3c2)cc1 [Example 97, 6-(4-cyanophenoxy)-N-(pyridin-2-ylmethyl)quinoline-2-carboxamide]	–	IC50 [2]: 0.842 µM
NC(=O)c1ccc2cc(Oc3ccc(C(F)(F)F)cn3)ccc2n1 [Example 210, 6-{[5-(trifluoromethyl)pyridin-2-yl]oxy}quinoline-2-carboxamide]	> 20	–
O=C(c1ccc2cc(Oc3ccc(C(F)(F)F)cn3)ccc2n1)N1CCN(S(=O)(=O)C2CCOCC2)CC1 [Example 383, [4-(tetrahydro-2H-pyran-4-ylsulfonyl)piperazin-1-yl](6-{[5-(trifluoromethyl)pyridin-2-yl]oxy}quinolin-2-yl)methanone]	> 20	–
O=C(NCC(O)C(F)(F)F)c1ccc2cc(Oc3ccc(C(F)(F)F)cn3)ccc2n1 (stereo not shown) [Example 75, N-(3,3,3-trifluoro-2-hydroxypropyl)-6-{[5-(trifluoromethyl)pyridin-2-yl]oxy}quinoline-2-carboxamide]	0.944	–
O=C(c1ccc2cc(Oc3ccc(C(F)(F)F)cn3)ccc2n1)N1CCn2cncc2C1 [Example 173, 5,6-dihydroimidazo[1,5-a]pyrazin-7(8H)-yl(6-{[5-(trifluoromethyl)pyridin-2-yl]oxy}quinolin-2-yl)methanone]	0.833	–
COC(C)CNC(=O)c1ccc2cc(Oc3ccc(C(F)(F)F)cn3)ccc2n1 (stereo not shown) [Example 590, N-(2-methoxypropyl)-6-{[5-(trifluoromethyl)pyridin-2-yl]oxy}quinoline-2-carboxamide]	1	–
O=C(c1ccc2cc(Oc3ccc(C(F)(F)F)cn3)ccc2n1)N1C[C@H]2C[C@@H]1CN2 [Example 241, (1R,4R)-2,5-diazabicyclo[2.2.1]hept-2-yl(6-{[5-(trifluoromethyl)pyridin-2-yl]oxy}quinolin-2-yl)methanone]	1.85	–
N#Cc1ccc(Oc2ccc3nc(C(=O)NC4CCNC(=O)C4)ccc3c2)cc1 (stereo not shown) [Example 484, 6-(4-cyanophenoxy)-N-(2-oxopiperidin-4-yl)quinoline-2-carboxamide]	–	IC50 [2]: 0.879 µM
COc1ccccc1N1CC(NC(=O)c2ccc3cc(Oc4ccc(C(F)(F)F)cn4)ccc3n2)CC1=O (stereo not shown) [Example 502, N-[1-(2-methoxyphenyl)-5-oxopyrrolidin-3-yl]-6-{[5-(trifluoromethyl)pyridin-2-yl]oxy}quinoline-2-carboxamide]	0.429	–
CC1(CO)CN(C(=O)c2ccc3cc(Oc4ccc(C(F)(F)F)cn4)ccc3n2)C1 [Example 207, [3-(hydroxymethyl)-3-methylazetidin-1-yl](6-{[5-(trifluoromethyl)pyridin-2-yl]oxy}quinolin-2-yl)methanone]	–	IC50 [2]: 3.65 µM
CN1CCN(C(=O)c2ccc3cc(Oc4ccc(C#N)cc4)ccc3n2)CC1 [Example 81, 4-({2[(4-methylpiperazin-1-yl)carbonyl]quinolin-6-yl}oxy)benzonitrile]	1.87	–
O=C(N[C@@H]1CS(=O)(=O)C[C@H]1O)c1ccc2cc(Oc3ccc(C(F)(F)F)nc3)ccc2n1 [Example 538, N-[(3S,4S)-4-hydroxy-1,1-dioxidotetrahydrothiophen-3-yl]-6-{[6-(trifluoromethyl)pyridin-3-yl]oxy}quinoline-2-carboxamide]	3.16	–
O=C(c1ccc2cc(Oc3ccc(C(F)(F)F)cn3)ccc2n1)N1CCC(F)(F)C(O)C1 (stereo not shown) [Example 193, (4,4-difluoro-3-hydroxypiperidin-1-yl)(6-{[5-(trifluoromethyl)pyridin-2-yl]oxy}quinolin-2-yl)methanone]	4.25	–
O=C(c1ccc2cc(Oc3ccc(C(F)F)cn3)ccc2n1)N1CC[C@@H](F)C1 [Example 575, (6-{[5-(difluoromethyl)pyridin-2-yl]oxy}quinolin-2-yl) [(3R)-3-fluoropyrrolidin-1-yl]methanone]	12.1	–

Structure (SMILES)	IC50 [1] [µM]	other results
O=C(c1ccc2cc(Oc3ccccn3)ccc2n1)N1CCOCC1 [Example 76, morpholin-4-yl[6-(pyridin-2-yloxy)quinolin-2-yl]methanone]	> 20	–
N#Cc1ccc(Oc2ccc3nc(C(=O)N[C@H]4CC[C@@H](O)C4)ccc3c2)cc1 [Example 130, 6-(4-cyanophenoxy)-N-[(1S,3R)-3-hydroxycyclopentyl]quinoline-2-carboxamide]	2.05	–
O=C(c1ccc2cc(Oc3ccc(C(F)(F)F)cn3)ccc2n1)N1CCN(C2COC2)CC1 [Example 252, [4-(oxetan-3-yl)piperazin-1-yl](6-{[5-(trifluoromethyl)pyridin-2-yl]oxy}quinolin-2-yl)methanone]	> 20	–
CC[C@H]1CN(C(=O)c2ccc3cc(Oc4ccc(C(F)(F)F)nc4)ccc3n2)CCN1 [Example 553, [(3S)-3-ethylpiperazin-1-yl](6-{[6-(trifluoromethyl)pyridin-3-yl]oxy}quinolin-2-yl)methanone]	–	IC50 [2]: 0.949 µM
O=C(c1ccc2cc(Oc3ccc(C(F)(F)F)cn3)ccc2n1)N1CC(Oc2ccc(Cl)cc2)C1 [Example 203, [3-(4-chlorophenoxy)azetidin-1-yl](6-{[5-(trifluoromethyl)pyridin-2-yl]oxy}quinolin-2-yl)methanone]	> 20	–
O=C(N[C@H]1C[C@H](O)C1)c1ccc2cc(Oc3ccc(C(F)(F)F)cn3)ccc2n1 [Example 302, N-(trans-3-hydroxycyclobutyl)-6-{[5-(trifluoromethyl)pyridin-2-yl]oxy}quinoline-2-carboxamide]	–	IC50 (FRET-Membrane Potential Nav1.7 IC50): 3.49 µM
O=C(NCC(=O)N1CCOCC1)c1ccc2cc(Oc3ccc(C(F)F)cn3)ccc2n1 [Example 458, 6-{[5-(difluoromethyl)pyridin-2-yl]oxy}-N-[2-(morpholin-4-yl)-2-oxoethyl]quinoline-2-carboxamide]	1.19	–
Cc1ccc(CNC(=O)c2ccc3cc(Oc4ccc(C#N)cc4)ccc3n2)o1 [Example 99, 6-(4-cyanophenoxy)-N-[(5-methyl-2-furyl)methyl]quinoline-2-carboxamide]	5.05	–
O=C(c1ccc2cc(Oc3ccc(C(F)(F)F)cn3)ccc2n1)N1CCN(c2cccnc2)CC1 [Example 269, [4-(pyridin-3-yl)piperazin-1-yl](6-{[5-(trifluoromethyl)pyridin-2-yl]oxy}quinolin-2-yl)methanone]	3.07	–
CC(C)NC(=O)CN(C)C(=O)c1ccc2cc(Oc3ccc(C(F)(F)F)cn3)ccc2n1 [Example 454, N-[2-(isopropylamino)-2-oxoethyl]-N-methyl-6-{[5-(trifluoromethyl)pyridin-2-yl]oxy}quinoline-2-carboxamide]	3.14	–
O=C(NCC1CNC1)c1ccc2cc(Oc3ccc(C(F)(F)F)cn3)ccc2n1 [Example 470, N-(azetidin-3-ylmethyl)-6-{[5-(trifluoromethyl)pyridin-2-yl]oxy}quinoline-2-carboxamide]	6.6	–
O=C(c1ccc2cc(Oc3ccc(C(F)F)cn3)ccc2n1)N1CCNCC1C(F)F (stereo not shown) [Example 430, [2-(difluoromethyl)piperazin-1-yl](6-{[5-(difluoromethyl)pyridin-2-yl]oxy}quinolin-2-yl)methanone]	–	IC50 [2]: 3.45 µM
N[C@@H]1[C@H]2CN(C(=O)c3ccc4cc(Oc5ccc(C(F)(F)F)nc5)ccc4n3)C[C@@H]12 [Example 528, meso-[(1R,5S,6s)-6-amino-3-azabicyclo[3.1.0]hex-3-yl](6-{[6-(trifluoromethyl)pyridin-3-yl]oxy}quinolin-2-yl)methanone]	2.92	–
CN1CCN(C(=O)c2ccc3cc(Oc4ccc(C(F)F)cn4)ccc3n2)CC1=O [Example 464, 4-[(6-{[5-(difluoromethyl)pyridin-2-yl]oxy}quinolin-2-yl)carbonyl]-1-methylpiperazin-2-one]	> 20	–
N#CCCCNC(=O)c1ccc2cc(Oc3ccc(C(F)(F)F)cn3)ccc2n1 [Example 595, N-(3-cyanopropyl)-6-{[5-(trifluoromethyl)pyridin-2-yl]oxy}quinoline-2-carboxamide]	1.13	–
O=C(NC1CCC(F)(F)C1)c1ccc2cc(Oc3ccc(C(F)F)cn3)ccc2n1 (stereo not shown) [Example 486, N-(3,3-difluorocyclopentyl)-6-{[5-(difluoromethyl)pyridin-2-yl]oxy}quinoline-2-carboxamide]	–	IC50 [2]: 2.54 µM
O=C(c1ccc2cc(Oc3ccc(C(F)(F)F)nc3)ccc2n1)N1CC[C@H](F)C1 [Example 550, [(3S)-3-fluoropyrrolidin-1-yl](6-{[6-(trifluoromethyl)pyridin-3-yl]oxy}quinolin-2-yl)methanone]	10.7	–
O=C(N[C@@H]1CS(=O)(=O)C[C@H]1O)c1ccc2cc(Oc3ccc(C(F)F)cn3)ccc2n1 [Example 477, 6-{[5-(difluoromethyl)pyridin-2-yl]oxy}-N-[(3S,4S)-4-hydroxy-1,1-dioxidotetrahydrothiophen-3-yl]quinoline-2-carboxamide]	5.51	–
